# From patent publication US10000641B2, “Method and composition for preventing corrosion of metal surfaces” (Ecolab USA Inc., priority 2010, dated 2018)
# What was measured:
# [1] = Linear Polarisation Resistance (LPR) Bubble test, corrosion rate
# Protocol: The corrosion inhibition (CI) performance of compounds and compositions of the invention and the performance of comparative examples was tested by means of Linear Polarisation Resistance (LPR) Bubble test measurements.
# In general, the LPR Bubble test method uses a test cell, typically made from glass, which is fitted with a probe containing electrodes which are connected to an electrochemical measurement system and associated software. The cell is also fitted with a gas inlet and frit to allow constant purging with CO2 gas. The cell can be loaded with test fluids, typically brine or a combination of brine and a suitable oil phase. The liquids may be stirred, typically at low or moderate speeds, or may be static. The instantaneous rate of corrosion can be measured throughout the experiment by means of the electrochemical probe which extends into the water phase. Other experiments, such as a cyclic sweep, or cyclic polarisation measurement, can also be performed.
# In our experiments, the LPR cells were loaded with 95 parts of water (brine) and 5 parts kerosene. The test temperature was 50° C. in all experiments, while details of the water phase pH values relevant to each water composition are given in this Table. The cells were continuously purged with CO2 gas and a stirring speed of 100 rpm was used.
# To perform the test, the electrode was allowed to pre-corrode for 2 hours, after which a test corrosion inhibitor composition was added to the kerosene phase. The test was then continued for a total of approximately 14 hours.
# Skeletonema costatum = assay: ISO 10253 1998 water quality marine algal growth inhibition test; assay type: cell-based
# Protocol: Toxicity (EC50) was measured by a standard test: ISO 10253 1998 water quality—marine algal growth inhibition test with Skeletonema costatum.
# [2] = standard testing procedures for biodegradability
# [3] = Table 5, Brine A, 10 ppm, blends also contain ethoxylated fatty acid ester and Na thiosulfate
# [4] = Brine B, 50° C., 10 ppm test chemical with sodium thiosulfate
molecule,measurement,setting,value
CCCCCCCCCC[N+](C)(C)CCCCCCCCCC [Mixture E],% Inhibition,[1]; [3],99.8%
same,Final corrosion rate,[1]; [3],0.009 mmpy
Na Oleyl amphoacetate,% Inhibition,"[1]; Brine A, 50° C., 10 ppm test chemical with sodium thiosulfate",96.81%
same,Final corrosion rate,"[1]; Brine A, 50° C., 10 ppm test chemical with sodium thiosulfate, 95:5 brine:kerosene, CO2 purge",0.12 mmpy
same,% Inhibition,[1]; [4],>99.99%
same,Final corrosion rate,[1]; [4],0.00014 mmpy
same,Algae toxicity (EC50),Skeletonema costatum,2.0 mg/L
O=C([O-])c1ccccc1.[Na+] [sodium benzoate],biodegraded,[2]; after 7 days,about 85.5%
same,biodegraded,[2]; after 14 days,about 95%
same,biodegraded,[2]; after 28 days,100%
